# Measurements reported in patent US11779628B2, “Use of cell-permeable peptide inhibitors of the JNK signal transduction pathway for the treatment of various diseases” (Xigen Inflammation Ltd., priority 2014, dated 2023).
# Legend:
# [1] = tested on: primary embryonic cultures and differentiated PC12 cells; conditions: after trophic withdrawal; cited from earlier work
# [2] = tested on: gerbil, transient global ischemia; conditions: Carboni et al. 2004; cited from earlier work
# Sprague-Dawley rats, STZ = assay: Rat model of diabetic nephropathy (STZ, high fat diet); format: in vivo; conditions: XG-102 1, 2, 4 mg/kg iv weekly; Losartan 25 mg/kg po daily; 9 weeks
# Source text: Losartan has been used as a positive control. Seventy-four male Sprague-Dawley rats (200-250 g; including 4 spare animals) from Charles River (Margate, Kent) were used. […] The diet has been purchased from Research Diets, New Jersey, USA. […] Animals have been housed in pairs throughout the study. […] During the third week of habituation, a blood sample has been taken from the lateral tail vein in the freely fed state using a hand-held glucose meter (One Touch Ultra 2). Blood sampling began at approximately 09:00. […] About 40 animals have been assigned to Cohort A and the remaining 30 to Cohort B, balanced as far as possible for body weight, plasma glucose and food and water intake. […] For the 7-day period post STZ dose, animals have been weighed daily and food and water intake determined twice weekly. For the remaining study duration, animals have been weighed and water and food intake assessed twice weekly (always on the day of intravenous dosing and typically on water refill day(s)). […] Animals have been weighed prior to dosing (this weight was recorded). Food and water have been recorded on the same days as the intravenous groups (A-E) only. […] Creatinine, glucose, urea, total protein and electrolytes (Na, K, Cl and Ca) have been determined on urine samples using a COBAS […] and associated reagents (n=2 for all urine analyses). […] Food consumed and water drunk has also been calculated. […]
compound,measurement,setting,value
CCSCc1ccc2c(c1)c1c3c(c4c5cc(CSCC)ccc5n5c4c1n2[C@H]1C[C@](O)(C(=O)OC)[C@]5(C)O1)CNC3=O [CEP-1347],neuronal survival,[1],promotes neuronal survival at dosages that inhibit activation of the c-Jun amino-terminal kinases (JNKs)
N#CC(c1ccnc(NCCc2cccnc2)n1)c1nc2ccccc2s1 (stereo not drawn) [AS601245],delayed loss of hippocampal CA1 neurons,[2],provided significant protection against the delayed loss of hippocampal CA1 neurons
CCCCc1nc(Cl)c(CO)n1Cc1ccc(-c2ccccc2-c2nn[nH]n2)cc1 [Losartan],body weight,"Sprague-Dawley rats, STZ",has been significantly lower
